According to patent US9681668B2, “Control of plant diseases and enhancing plant growth using a combination of a Trichoderma virens species and a rhizosphere competent Trichoderma harzianum species” (priority 2008, dated 2017):

Experiments:
Assay type in all cases: in vivo
[1] = test system: Phytophthora cinnamomi; assay: Example 1: soil treatment of boxwoods inoculated with P. cinnamomi; conditions: boxwood; for Marketability: 1(dead)-5(excellent) Scale: G41 8 oz, mefenoxam 1 oz/100 gal, mean of 10
Experimental: (§1) Except for the non-inoculated controls, each plant was treated with P. cinnamomi inoculum to induce disease. Boxwood plants were obtained from a local nursery and placed into a 6 inch diameter pot containing pine bark: peat (3:1 volume:volume) potting media. The medium was amended with 14 lb of 17-7-12 Osmocote fertilizer per cubic yard of mix.
(§2) Inoculum of P. cinnamomi was grown on sterilized rice grains for 14 days at 24-26° C. prior to inoculation. To treat the plants with the pathogen inoculum, four holes were punched equidistant around the root ball, and four colonized rice grains were inserted in each hole. Each of the test materials was applied at the specified rate to the soil surface, using a 2.5 pint hand held sprayer. The chemical standard, mefenoxam (Subdue®), was applied to the soil surface 24 hours after the plant roots were inoculated with P. cinnamomi inoculum. T22 and G41 were applied to the soil surface 72 hours prior to root inoculation with P. cinnamomi.
(§3) A marketability rating was determined for each plant at one day after inoculation (DAI) with P. cinnamomi, 22 days DAI, and 54 days DAI. Using the following scale, each plant was rated by three researchers and the mean value was determined for each plant: • 1: Dead plants • 2: Poor, unsalable (severe chlorosis and poor top growth) • 3: Moderate, salable (slight chlorosis and/or stunting; plant growth between 2 and 4) • 4: Salable (few individual leaves with chlorosis, green foliage; plant growth between 3 and 5) • 5: Excellent health, salable (no chlorosis; optimum top growth)
(§4) At 1, 22, and 54 DAI, plant height was measured from the crown to the highest point of the plant. Dry root weight and fresh shoot weight were determined at 22 and 54 DAI.
(§5) At 22 DAI, a subset of plants from each treatment were removed and examined. Plants were removed from the pots, and excess soil was carefully brushed from the roots. Above ground portions (shoots) were cut away from the below ground portions and dried in an oven. Dry root weights and fresh shoot weights were recorded. At 54 DAI, the experiment was terminated; the remaining plants were treated as above to determine dry root and shoot weights. Data were subjected to analysis of variance and treatment means were separated by Student-Newman-Keuls test at P=0.05.

[2] = test system: Phytophthora cinnamomi; assay: Example 2: spray treatment of boxwoods challenged with Phytophthora cinnamomi; conditions: boxwood, P. cinnamomi; for Dry Root Weight / Fresh Shoot Weight: mean of 5; for Marketability: 1(dead)-5(excellent) Scale: G41 4 oz, T22 4 oz, mefenoxam 1 oz/100 gal; for Marketability: 1(dead)-5(excellent) Scale / Height: mean of 10
Experimental: as §1, §2, §3, §4, §5
Except for the non-inoculated controls, each plant was treated with P. cinnamomi inoculum to induce disease. The methodology for this test was identical to that described in Example 1.

[3] = test system: Phytophthora nicotianae; assay: Example 3: spray treatment of azaleas challenged with Phytophthora nicotianae; conditions: azalea, P. nicotianae; for Dry Root Weight / Fresh Shoot Weight: mean of 5; for Marketability: 1(dead)-5(excellent) Scale: G41 4 oz, T22 4 oz, mefenoxam 1 oz/100 gal; for Marketability: 1(dead)-5(excellent) Scale / Height: mean of 10
Experimental: as §2, §3, §4, §5
Except for the non-inoculated controls, each plant was treated with P. nicotianae inoculum to induce disease. The methodology for this test was identical to that described in Example 1.

[4] = test system: Fusarium oxysporum f. sp. lycopersici; assay: Example 4: soil drench of tomato seedlings challenged with Fusarium oxysporum; conditions: 28 DAI, biologicals 4 oz, mefenoxam 1 oz/100 gal, mean of 28 plants
Experimental: (§6) Tomato, Lycopersicon esculentum, var esculentum ‘Beefsteak’, seedlings were subjected to the soil drench treatments set forth in Table 13. Except for the non-inoculated controls, each plant was treated with inoculum of the pathogen F. oxysporum f. sp. lycopersici to induce disease.
(§7) Tomatoes were started in 128-cell flats from seeds in a general purpose, peat-based growing medium. Plants were watered with a 100 ppm solution of 20-20-20 water-soluble plant food (Jack's Classic). At 4-5 days after planting, the seedlings were drenched with the biological materials mixed in water. Seedlings not receiving treatments at this time were treated only with the blank formulation (without Trichoderma).
(§8) Inoculum of F. oxysporum was grown on sterilized rice grains for 7 days at 24-26° C. The rice was uniformly blended into growing medium at a rate of 5% (weight: weight). Seven day old tomato seedlings were transplanted into 4 inch pots that contained the pathogen inoculum on rice. A set of untreated control seedlings were transplanted into pots containing the growing medium plus uninoculated rice. […]
(§9) Plants were maintained in a growing room at 20-24° C. under a 12 hour light: dark cycle. […] The material was dried in an oven at 60° C. until completely dry (approximately 24 hours) and the weights recorded. […] Significant differences between treatment means were determined using Tukey's HSD test at P=0.05.

[5] = test system: Pythium irregulare; assay: Example 5: soil drench of tomato seedlings challenged with Pythium irregulare; conditions: 21 DAI, biologicals 4 oz, mefenoxam 1 oz/100 gal, mean of 28 plants
Experimental: (§10) Tomato, Lycopersicon esculentum, var esculentum ‘Beefsteak’, seedlings were subjected to the soil drench treatments set forth in Table 13. Except for the non-inoculated controls, each plant was treated with inoculum of the pathogen Pythium irregulare to induce disease.
(§11) Tomato seedlings were grown and treated as described above in Example 2. Sterile rice was inoculated with a suspension of P. irregulare at the rate of 1 colonized PDA Petri plate/1 liter of sterile water. Rice was incubated for 24 hours at 24-26° C. Infested rice was uniformly blended into the growing medium at a rate of 5% (weight: weight).
(§12) Tomato seedlings were transplanted into 4 inch pots that contained the pathogen inoculum on rice. A set of untreated control seedlings were transplanted into pots containing the growing medium plus rice, but no pathogen. A set of seedlings was drenched with the label rate of mefenoxam to serve as the chemical standard and a set of treated control seedlings was transplanted into medium containing the pathogen.
(§13) Plants were maintained in a growing room at 20-24° C. under a 12 hour light: dark cycle. Plants were watered with a nutrient solution as described above. […] The material was dried in an oven until completely dry (approximately 24 hours) and the weights recorded.

[6] = test system: Pythium aphanidermatum; assay: Example 6: cucumber seed coating against Pythium aphanidermatum damping-off; conditions: P. aphanidermatum inoculum, greenhouse
Experimental: Cucumber, Cucumis sativus, var Marketmore 76 seeds were coated with T harzianum and/or T. virens, or mefenoxam as described by Pill et al. (Pill et. al., Scientia Horticulturae 121:54-62 (2009), which is hereby incorporated by reference in its entirety). Seeds were planted into flats with or without P. aphanidermatum inoculum. The experiment was conducted in a greenhouse with natural lighting and temperature settings of 25/22° C. (day/night). The numbers of seedlings emerged were recorded daily until there was no increase for two consecutive days. Diseased plants were recorded as either pre- (no seedling emergence) or post-emergent (shoot lodging).

[7] = test system: Rhizoctonia solani; assay: Example 7: soil drench of tomato seedlings challenged with Rhizoctonia solani; conditions: R. solani, 23 DAI, biologicals 4 oz, mefenoxam 1 oz/100 gal, mean of 28 plants
Experimental: as §10, with “13, except that there were no untreated control plants.” for “13.”, “R. solani” for “Pythium irregulare”
Tomato seedlings were grown and treated as described above in Example 2. Sterile rice was inoculated with agar plugs from PDA Petri plates containing growing colonies of R. solani at a rate of one colonized PDA plate/500 g rice. Rice was incubated for 10 days at 24-26° C. Infested rice was uniformly blended into the growing medium at a rate of 5% (weight: weight).
Tomato seedlings were transplanted into 4 inch pots that contained the pathogen inoculum on rice. The untreated check plants became contaminated with an unknown disease and were not included in the analysis. A set of seedlings was drenched with the label rate of mefenoxam to serve as the chemical standard and a set of treated control seedlings was transplanted into medium containing the pathogen.
as §13, with “oven at 60° C.” for “oven”, “recorded. Data were analyzed as described in Example 2, above.” for “recorded.”

[8] = test system: Pythium irregulare; assay: Example 8 Experiment 1: soil drench of cucumber seedlings challenged with Pythium irregulare (T22 and G21); conditions: 28 DAI, biologicals 4 oz, mefenoxam 1 oz/100 gal, mean of 14 plants
Experimental: Except for the non-inoculated controls, each plant was treated with inoculum of the pathogen Pythium irregulare to induce disease.
as §11, with “Seedlings were” for “Tomato seedlings were”, “described” for “described above”, “Example 4.” for “Example 2.”, “of one” for “of 1”
as §12, with “Cucumber” for “Tomato”
Plants were maintained in a growing room at 20-24° C. under a 12 hour light: dark cycle. At 28 DAI, the experiment was terminated, and the plants were each separated into two parts: root (below ground) and shoot (above ground). The material was dried in an oven at 60° C. until completely dry (approximately 24 hours) and the weights recorded. Data were analyzed as described in Example 4.

[9] = test system: Fusarium oxysporum f. sp. lycopersici; assay: Example 8 Experiment 2: soil drench of tomato seedlings challenged with Fusarium oxysporum (T12 and G41); conditions: 28 DAI, biologicals 4 oz, mefenoxam 1 oz/100 gal, mean of 14 plants
Experimental: as §6, §7, §8
as §9, with “P=0.05. […]” for “P=0.05.”

COCC(=O)N(c1c(C)cccc1C)[C@H](C)C(=O)OC [Mefenoxam, mefenoxam]
Marketability: 1(dead)-5(excellent) Scale ([1]; 5/26, T22 4 oz): 5 a | Height ([1]; 5/26, mean of 10): 13.8 a cm | Marketability: 1(dead)-5(excellent) Scale ([1]; 6/21, T22 4 oz): 4.4 a | Dry Root Weight ([1]; 6/21, mean of 5): 16.7 a g | Fresh Shoot Weight ([1]; 6/21, mean of 5): 86.2 a g | Height ([1]; 6/21, mean of 10): 39.7 a cm | Marketability: 1(dead)-5(excellent) Scale ([1]; 7/10, T22 4 oz): 4.7 a | Dry Root Weight ([1]; 7/10, mean of 5): 30.1 a g | Fresh Shoot Weight ([1]; 7/10, mean of 5): 108.3 a g | Height ([1]; 7/10, mean of 10): 39.8 a cm | Dry Root Weight ([2]; 1/13): 96.0 ab g | Fresh Shoot Weight ([2]; 1/13): 81.6 a g | Dry Root Weight ([2]; 12/12): 76.4 a g | Fresh Shoot Weight ([2]; 12/12): 64.8 a g | Marketability: 1(dead)-5(excellent) Scale ([2]; Dec. 12, 2004): 4.6 a | Height ([2]; Dec. 12, 2004): 34.6 ab cm | Marketability: 1(dead)-5(excellent) Scale ([2]; Jan. 13, 2005): 4.7 ab | Height ([2]; Jan. 13, 2005): 36.7 ab cm | Marketability: 1(dead)-5(excellent) Scale ([2]; Nov. 21, 2004): 5.0 a | Height ([2]; Nov. 21, 2004): 13.3 ab cm | Dry Root Weight ([3]; 6/21): 44.2 a g | Fresh Shoot Weight ([3]; 6/21): 49.0 ab g | Dry Root Weight ([3]; 7/10): 55.5 ab g | Fresh Shoot Weight ([3]; 7/10): 70.3 ab g | Marketability: 1(dead)-5(excellent) Scale ([3]; Dec. 17, 2004): 4.4 ab | Height ([3]; Dec. 17, 2004): 27.5 ab cm | Marketability: 1(dead)-5(excellent) Scale ([3]; Jan. 6, 2005): 4.4 ab | Height ([3]; Jan. 6, 2005): 35.5 ab cm | Marketability: 1(dead)-5(excellent) Scale ([3]; Nov. 25, 2004): 5 a | Height ([3]; Nov. 25, 2004): 13.7 a cm | Dry Root Weight [4]: 0.12 bc g | Dry Shoot Weight [4]: 0.90 bc g | Dry Root Weight [5]: 0.04 c g | Dry Shoot Weight [5]: 0.28 g·days | Percent Damping-Off, Pre-emergence [6]: 4.6 bc Percent | Percent Damping-Off, Total [6]: 9.3 c Percent | Dry Root Weight [7]: 0.06 b g | Dry Shoot Weight [7]: 0.42 c g | Dry Root Weight [8]: 0.10 abc g | Dry Shoot Weight [8]: 0.66 ab g | Dry Root Weight [9]: 0.03 b g | Dry Shoot Weight [9]: 0.17 c g
